The values below come from ChEMBL document CHEMBL5465560, “Selectivity Literature for EUbOPEN Chemogenomic Library” (2024).

Assay [1] concerns the target T1, Serine/threonine-protein kinase TNNI3K (Homo sapiens) (UniProt Q59H18).
T1 sequence (whole entry): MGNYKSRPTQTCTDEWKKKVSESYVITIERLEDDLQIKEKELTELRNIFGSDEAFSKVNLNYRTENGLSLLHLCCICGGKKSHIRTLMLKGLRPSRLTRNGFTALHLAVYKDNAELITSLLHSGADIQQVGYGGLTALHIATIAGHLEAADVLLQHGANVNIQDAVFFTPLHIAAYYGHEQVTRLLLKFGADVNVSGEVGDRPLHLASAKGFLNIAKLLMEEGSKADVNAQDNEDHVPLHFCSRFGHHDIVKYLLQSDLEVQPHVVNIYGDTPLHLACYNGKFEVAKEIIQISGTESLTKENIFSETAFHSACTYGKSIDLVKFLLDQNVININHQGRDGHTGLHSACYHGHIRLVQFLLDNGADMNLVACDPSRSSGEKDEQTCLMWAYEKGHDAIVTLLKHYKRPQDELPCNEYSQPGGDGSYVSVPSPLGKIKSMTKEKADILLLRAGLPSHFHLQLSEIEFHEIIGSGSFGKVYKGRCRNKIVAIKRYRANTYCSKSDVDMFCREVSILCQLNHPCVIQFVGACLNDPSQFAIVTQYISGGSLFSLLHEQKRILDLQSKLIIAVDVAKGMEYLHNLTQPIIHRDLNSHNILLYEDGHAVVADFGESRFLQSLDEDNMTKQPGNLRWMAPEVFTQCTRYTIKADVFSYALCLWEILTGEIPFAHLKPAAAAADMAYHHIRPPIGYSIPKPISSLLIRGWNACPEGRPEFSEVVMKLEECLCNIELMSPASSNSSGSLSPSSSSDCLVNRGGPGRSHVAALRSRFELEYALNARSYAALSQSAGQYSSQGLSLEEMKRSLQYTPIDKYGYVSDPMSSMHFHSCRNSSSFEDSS
The assay is described as follows: Selectivity interaction (KinomeScan (DiscoverX)) EUB0000595a TNNI3K. As to conditions: at 10 µM.

The target of assay [2] is T2, Testis-specific serine/threonine-protein kinase 3 (Homo sapiens) (UniProt Q96PN8).
T2 sequence (whole entry): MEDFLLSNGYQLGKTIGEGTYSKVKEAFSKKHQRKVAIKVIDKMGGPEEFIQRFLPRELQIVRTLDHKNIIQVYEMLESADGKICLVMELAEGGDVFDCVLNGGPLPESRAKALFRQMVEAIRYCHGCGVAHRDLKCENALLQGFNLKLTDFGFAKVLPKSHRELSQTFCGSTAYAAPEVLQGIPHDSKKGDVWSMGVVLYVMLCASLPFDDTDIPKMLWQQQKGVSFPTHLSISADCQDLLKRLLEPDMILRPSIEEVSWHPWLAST
The assay is described as follows: Selectivity interaction (SelectScreen profiling (Invitrogen)) EUB0000607a TSSK3. As to conditions: at 2 µM.

Assay [3] addresses Cyclin-dependent kinase 14 (Homo sapiens) (UniProt O94921). The assay is described as follows: Selectivity interaction (ActivX KiNativ screen (kinase selectivity in THP-1 cell lysates)) EUB0000639a CDK14. Type of assay: subcellular. As to conditions: lysate, at 0.04 µM.
In assay [4] the target is Protein arginine N-methyltransferase 7 (Homo sapiens, UniProt Q9NVM4). The experiment in a line: Selectivity interaction (Scintillation proximity assays) EUB0000230b PRMT7. On the technique in general: Scintillation proximity formats need no separation of bound from free tracer.
The target of assay [5] is Aurora kinase B (Homo sapiens, UniProt Q96GD4). The assay is described as follows: Selectivity interaction (ProQinase) EUB0000171b AURKB.
The target of assay [6] is Mitogen-activated protein kinase kinase kinase 14 (Homo sapiens) (UniProt Q99558). The assay is described as follows: Selectivity interaction (ProQinase) EUB0000171b MAP3K14.
For assay [7], the target named is Death-associated protein kinase 2 (Homo sapiens) (UniProt Q9UIK4). The experiment in a line: Selectivity interaction (Ambit KINOMEscan and KiNATiv profiling in Jurkat cells) EUB0000090b DAPK2. Format: cell-based. The note with it: at 1 µM.
Assay [8] has as its target Cyclin-dependent kinase 2 (Homo sapiens, UniProt P24941). The experiment in a line: Selectivity interaction (KinomeScan (DiscoverX)) EUB0000618a CDK2. As to conditions: at 10 µM.
In assay [9] the target is SRSF protein kinase 2 (Homo sapiens) (UniProt P78362). The assay is described as follows: Selectivity interaction (KinomeScan (DiscoverX)) EUB0000092b SRPK2. The note with it: at 10 µM.
The target in assay [10] is T3, Mitogen-activated protein kinase 12 (Homo sapiens) (UniProt P53778).
T3 sequence (whole entry): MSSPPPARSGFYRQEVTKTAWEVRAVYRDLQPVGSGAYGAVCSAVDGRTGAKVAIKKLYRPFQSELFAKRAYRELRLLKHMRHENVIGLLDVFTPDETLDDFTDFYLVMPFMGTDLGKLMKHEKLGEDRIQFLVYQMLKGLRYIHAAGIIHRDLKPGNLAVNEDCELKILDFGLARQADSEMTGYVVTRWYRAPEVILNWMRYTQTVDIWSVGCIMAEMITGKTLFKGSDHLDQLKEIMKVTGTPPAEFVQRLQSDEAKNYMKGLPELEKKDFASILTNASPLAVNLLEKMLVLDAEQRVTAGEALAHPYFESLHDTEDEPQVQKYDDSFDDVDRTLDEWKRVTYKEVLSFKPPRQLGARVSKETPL
The assay is described as follows: Selectivity interaction (Millipore kinase profiler) EUB0000124b MAPK12. As to conditions: at 10 µM.

The target of assay [11] is T4, Tyrosine-protein kinase ITK/TSK (Homo sapiens) (UniProt Q08881).
T4 sequence (whole entry): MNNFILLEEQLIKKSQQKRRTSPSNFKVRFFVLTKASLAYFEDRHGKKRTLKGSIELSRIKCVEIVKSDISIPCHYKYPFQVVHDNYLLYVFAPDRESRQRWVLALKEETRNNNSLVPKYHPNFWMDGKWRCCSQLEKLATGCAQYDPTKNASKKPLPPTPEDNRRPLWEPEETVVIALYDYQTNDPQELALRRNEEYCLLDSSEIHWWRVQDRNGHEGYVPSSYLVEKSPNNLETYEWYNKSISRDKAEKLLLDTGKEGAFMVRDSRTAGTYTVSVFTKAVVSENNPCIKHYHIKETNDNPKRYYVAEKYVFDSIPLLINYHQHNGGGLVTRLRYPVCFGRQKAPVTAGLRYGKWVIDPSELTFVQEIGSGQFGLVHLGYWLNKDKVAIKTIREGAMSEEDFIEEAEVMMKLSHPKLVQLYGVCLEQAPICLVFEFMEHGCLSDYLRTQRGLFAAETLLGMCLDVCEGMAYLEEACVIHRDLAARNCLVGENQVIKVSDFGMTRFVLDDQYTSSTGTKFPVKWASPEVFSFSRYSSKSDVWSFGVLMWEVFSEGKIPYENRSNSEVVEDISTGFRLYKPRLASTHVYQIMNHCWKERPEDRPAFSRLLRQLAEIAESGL
The assay is described as follows: Selectivity interaction (KinomeScan (DiscoverX)) EUB0000229b ITK. As to conditions: at 10 µM.

In assay [12] the target is Mitogen-activated protein kinase 7 (Homo sapiens) (UniProt Q13164). The assay is described as follows: Selectivity interaction (KinomeScan (DiscoverX)) EUB0000229b MAPK7. The note with it: at 10 µM.
The target in assay [13] is Serine/threonine-protein kinase WNK3 (Homo sapiens) (UniProt Q9BYP7). The experiment in a line: Selectivity interaction (KinomeScan (DiscoverX)) EUB0000229b WNK3. The note with it: at 10 µM.

Chain of Mitogen-activated protein kinase kinase kinase 14 (Homo sapiens) (Q99558 whole entry, looked up): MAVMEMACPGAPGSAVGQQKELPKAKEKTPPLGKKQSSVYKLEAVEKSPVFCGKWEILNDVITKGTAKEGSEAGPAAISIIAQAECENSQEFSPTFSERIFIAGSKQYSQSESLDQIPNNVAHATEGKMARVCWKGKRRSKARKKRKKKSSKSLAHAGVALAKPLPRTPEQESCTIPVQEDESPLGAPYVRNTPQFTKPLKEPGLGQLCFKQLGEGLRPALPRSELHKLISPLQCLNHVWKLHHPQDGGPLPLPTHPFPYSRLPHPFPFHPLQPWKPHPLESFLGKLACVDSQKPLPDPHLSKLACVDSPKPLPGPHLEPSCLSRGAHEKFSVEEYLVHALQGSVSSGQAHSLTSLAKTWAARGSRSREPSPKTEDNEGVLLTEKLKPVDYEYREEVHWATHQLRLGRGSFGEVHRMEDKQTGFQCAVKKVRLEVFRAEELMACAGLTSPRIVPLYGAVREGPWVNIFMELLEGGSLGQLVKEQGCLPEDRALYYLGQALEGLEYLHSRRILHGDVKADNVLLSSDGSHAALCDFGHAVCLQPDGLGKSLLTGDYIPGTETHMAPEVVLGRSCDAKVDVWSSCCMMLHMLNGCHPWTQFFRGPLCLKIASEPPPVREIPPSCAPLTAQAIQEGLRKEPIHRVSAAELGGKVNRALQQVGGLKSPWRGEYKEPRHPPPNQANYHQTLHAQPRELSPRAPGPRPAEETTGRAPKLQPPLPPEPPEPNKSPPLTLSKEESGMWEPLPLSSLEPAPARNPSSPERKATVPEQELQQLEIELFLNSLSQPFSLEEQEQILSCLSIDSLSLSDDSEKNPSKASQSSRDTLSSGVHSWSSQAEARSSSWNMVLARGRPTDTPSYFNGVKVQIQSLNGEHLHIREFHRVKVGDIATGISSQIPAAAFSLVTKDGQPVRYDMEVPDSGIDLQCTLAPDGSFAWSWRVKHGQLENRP
Chain of Aurora kinase B (Q96GD4 whole entry): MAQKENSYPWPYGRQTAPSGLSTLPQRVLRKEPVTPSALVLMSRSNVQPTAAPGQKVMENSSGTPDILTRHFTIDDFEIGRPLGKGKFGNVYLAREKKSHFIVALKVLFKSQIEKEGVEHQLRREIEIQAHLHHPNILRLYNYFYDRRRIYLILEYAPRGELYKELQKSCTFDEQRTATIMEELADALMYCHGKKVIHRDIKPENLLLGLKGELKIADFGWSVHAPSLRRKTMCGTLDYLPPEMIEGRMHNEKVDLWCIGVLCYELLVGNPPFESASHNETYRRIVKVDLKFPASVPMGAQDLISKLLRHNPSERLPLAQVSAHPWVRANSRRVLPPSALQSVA
Chain of Mitogen-activated protein kinase 7 (Homo sapiens) (Q13164 2-816 limits assumed): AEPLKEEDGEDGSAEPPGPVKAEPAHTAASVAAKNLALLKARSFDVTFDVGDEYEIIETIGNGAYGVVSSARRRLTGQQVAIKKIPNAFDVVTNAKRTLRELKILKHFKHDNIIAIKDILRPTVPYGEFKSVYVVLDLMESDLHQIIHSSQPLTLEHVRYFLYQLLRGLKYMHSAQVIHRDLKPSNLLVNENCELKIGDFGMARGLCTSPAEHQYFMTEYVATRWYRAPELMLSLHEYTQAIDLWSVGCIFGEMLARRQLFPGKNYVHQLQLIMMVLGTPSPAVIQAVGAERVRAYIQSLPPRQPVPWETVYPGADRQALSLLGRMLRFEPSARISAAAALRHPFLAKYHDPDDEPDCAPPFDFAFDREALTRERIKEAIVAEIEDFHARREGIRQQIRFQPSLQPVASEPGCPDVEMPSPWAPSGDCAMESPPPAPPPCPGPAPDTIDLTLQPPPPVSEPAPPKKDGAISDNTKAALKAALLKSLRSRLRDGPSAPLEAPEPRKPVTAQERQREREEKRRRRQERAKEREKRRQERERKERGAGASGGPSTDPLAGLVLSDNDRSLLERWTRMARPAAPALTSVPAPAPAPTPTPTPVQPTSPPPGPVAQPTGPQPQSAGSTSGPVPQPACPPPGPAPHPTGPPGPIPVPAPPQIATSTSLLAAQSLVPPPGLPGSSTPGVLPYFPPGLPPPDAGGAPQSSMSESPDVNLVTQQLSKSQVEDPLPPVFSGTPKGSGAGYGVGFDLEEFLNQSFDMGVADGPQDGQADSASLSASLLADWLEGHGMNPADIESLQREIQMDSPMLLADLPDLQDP
Chain of Death-associated protein kinase 2 (Homo sapiens) (Q9UIK4 whole entry, looked up): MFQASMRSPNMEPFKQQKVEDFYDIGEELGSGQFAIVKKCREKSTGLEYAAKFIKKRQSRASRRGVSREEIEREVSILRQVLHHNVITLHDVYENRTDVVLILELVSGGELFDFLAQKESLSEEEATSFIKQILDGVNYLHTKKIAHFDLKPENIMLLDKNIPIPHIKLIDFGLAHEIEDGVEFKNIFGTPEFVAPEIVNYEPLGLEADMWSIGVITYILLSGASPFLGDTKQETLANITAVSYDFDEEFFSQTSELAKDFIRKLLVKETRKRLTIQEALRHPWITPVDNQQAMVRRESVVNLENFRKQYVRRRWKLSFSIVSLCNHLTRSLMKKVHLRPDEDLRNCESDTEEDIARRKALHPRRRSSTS
Chain of Protein arginine N-methyltransferase 7 (Q9NVM4 whole entry): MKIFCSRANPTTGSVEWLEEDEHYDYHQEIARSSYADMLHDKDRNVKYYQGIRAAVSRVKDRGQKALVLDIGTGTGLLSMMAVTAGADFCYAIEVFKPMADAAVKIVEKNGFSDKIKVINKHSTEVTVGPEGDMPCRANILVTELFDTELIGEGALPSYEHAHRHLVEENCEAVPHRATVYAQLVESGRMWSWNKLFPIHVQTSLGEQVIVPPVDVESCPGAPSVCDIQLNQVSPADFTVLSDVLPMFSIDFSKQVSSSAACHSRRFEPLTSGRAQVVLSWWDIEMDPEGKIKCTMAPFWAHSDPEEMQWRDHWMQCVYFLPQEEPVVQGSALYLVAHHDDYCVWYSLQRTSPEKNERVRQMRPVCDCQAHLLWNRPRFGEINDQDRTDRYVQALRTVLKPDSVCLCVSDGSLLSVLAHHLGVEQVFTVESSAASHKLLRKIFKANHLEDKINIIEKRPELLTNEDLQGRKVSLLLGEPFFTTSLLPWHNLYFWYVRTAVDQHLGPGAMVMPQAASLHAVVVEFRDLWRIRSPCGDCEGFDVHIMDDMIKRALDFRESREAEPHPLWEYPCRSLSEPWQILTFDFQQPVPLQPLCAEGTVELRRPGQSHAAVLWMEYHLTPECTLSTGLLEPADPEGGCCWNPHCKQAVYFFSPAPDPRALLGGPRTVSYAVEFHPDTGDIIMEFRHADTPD
Chain of Cyclin-dependent kinase 14 (Homo sapiens) (O94921 whole entry): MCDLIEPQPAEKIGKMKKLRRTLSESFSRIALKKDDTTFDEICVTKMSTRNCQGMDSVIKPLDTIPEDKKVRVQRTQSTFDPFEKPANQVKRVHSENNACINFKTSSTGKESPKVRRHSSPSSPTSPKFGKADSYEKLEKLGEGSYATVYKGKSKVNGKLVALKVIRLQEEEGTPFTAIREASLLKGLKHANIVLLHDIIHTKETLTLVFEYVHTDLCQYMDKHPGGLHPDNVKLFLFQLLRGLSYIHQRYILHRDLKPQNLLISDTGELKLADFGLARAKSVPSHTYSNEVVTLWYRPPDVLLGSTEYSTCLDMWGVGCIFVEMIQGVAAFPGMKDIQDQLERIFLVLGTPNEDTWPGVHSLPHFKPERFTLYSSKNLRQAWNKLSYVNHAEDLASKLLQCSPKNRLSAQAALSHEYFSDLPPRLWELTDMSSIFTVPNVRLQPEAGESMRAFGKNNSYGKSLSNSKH
Chain of SRSF protein kinase 2 (Homo sapiens) (P78362 whole entry, looked up): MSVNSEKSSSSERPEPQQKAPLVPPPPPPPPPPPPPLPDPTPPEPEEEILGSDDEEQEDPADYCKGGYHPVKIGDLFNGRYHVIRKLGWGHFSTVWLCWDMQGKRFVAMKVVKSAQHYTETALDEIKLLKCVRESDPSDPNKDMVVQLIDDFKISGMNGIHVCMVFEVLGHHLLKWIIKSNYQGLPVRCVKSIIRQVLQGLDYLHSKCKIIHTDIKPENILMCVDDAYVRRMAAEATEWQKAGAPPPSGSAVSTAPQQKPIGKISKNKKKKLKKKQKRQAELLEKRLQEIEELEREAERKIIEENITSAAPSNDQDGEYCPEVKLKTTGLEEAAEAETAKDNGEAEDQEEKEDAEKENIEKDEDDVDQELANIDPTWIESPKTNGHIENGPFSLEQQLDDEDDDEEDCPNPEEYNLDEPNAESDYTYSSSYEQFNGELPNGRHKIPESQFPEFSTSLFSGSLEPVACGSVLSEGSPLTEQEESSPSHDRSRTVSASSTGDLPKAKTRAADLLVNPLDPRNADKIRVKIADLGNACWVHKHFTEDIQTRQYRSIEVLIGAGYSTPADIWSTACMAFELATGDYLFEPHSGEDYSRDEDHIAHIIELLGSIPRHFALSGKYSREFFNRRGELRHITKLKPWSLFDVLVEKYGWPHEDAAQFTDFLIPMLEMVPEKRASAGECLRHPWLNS

For `COCC(=O)NC/C=C/c1ccc2ncnc(Nc3ccc(Oc4ccc(C)nc4)c(C)c3)c2c1` [CP-724714], the % of control in [1] came to 100%. In the case of `CNC(=O)Nc1ccc(-c2nc(N3CC4CCC(C3)O4)c3cnn(C4CCC5(CC4)OCCO5)c3n2)cc1`, the % of inhibition in assay [2] was 3%. `CC[C@@H]1[C@H](F)C(=O)N[C@@H]1COc1nccc2cc(C(N)=O)c(OC)cc12` [ZIMLOVISERTIB] registered a % of inhibition in [3] of 5.5%. Take `CNCCN1CCC(c2cc(CN(C)C(=O)c3cccc(Oc4ccccc4)c3)ccn2)CC1`: in [4], the IC50 (in general, the concentration that gives 50% inhibition) is over 10 µM.

With `C=CC(=O)Nc1cccc(C(=O)Nc2ccc(Nc3cc(-c4[nH]c(SC)nc4C)ccn3)cc2)c1`, the % of control in assay [5] (at 1 µM) came to 73%; in assay [5] (at 5 µM), 40%; in assay [6] (at 1 µM) it was 91%; in assay [6] (at 5 µM) it was 87%. In assay [7], `CN(C)C/C=C/C(=O)Nc1ccc(C(=O)N2CCCC(Nc3ncc(Cl)c(-c4c[nH]c5ccccc45)n3)C2)cc1` (stereo not given) registered a % of control of 98%. `O[C@H]1CC[C@H](Nc2ncc3nc(Nc4c(F)cc(F)cc4F)n([C@H]4CCOC4)c3n2)CC1`: in assay [8], the % of control was found to be 100%.

The molecule `CCC(=O)N1CCN(c2ccc(-n3c(=O)ccc4cnc5ccc(-c6cnc7ccccc7c6)cc5c43)cc2C(F)(F)F)CC1` showed a % of control in assay [9] of 100%.

On to `CC(=O)Nc1cccc(-n2c(=O)n(C3CC3)c(=O)c3c(Nc4ccc(I)cc4F)n(C)c(=O)c(C)c32)c1`, for which, in assay [10], the % of control was 97%. In the case of `COc1cc(N(C)c2ccnc3ccc(C(F)(F)F)cc23)cc(OC)c1OC`, the % binding in assay [11] was found to be 94%; in [12], 87%; in [13] it was 80%.
